According to ChEMBL document CHEMBL5038598, “Design and Synthesis of Pyrrolo[2,3-d]pyrimidine-Derived Leucine-Rich Repeat Kinase 2 (LRRK2) Inhibitors Using a Checkpoint Kinase 1 (CHK1)-Derived Crystallographic Surrogate” (J Med Chem, 2021):
Activity calls are given as the source filed them. The rule behind the calls is not given here.

Assays:
[1] = Ratio of drug level in Md1a/1b C57BL/6 mouse brain to plasma at 5 mg/kg, sc and measured after 0.5 hrs; type: ADME, organism-based
[2] = Drug uptake in Mdr1a/ 1b-BCRP knockout C57BL/6 mouse plasma at 5 mg/kg, sc and measured after 0.5 hrs; type: ADME, organism-based
[3] = target: T1, Leucine-rich repeat serine/threonine-protein kinase 2 (Mus musculus, UniProt Q5S006); test: Inhibition of LRRK2-WT-pSER935 in C57BL/6 mouse brain at 10 to 150 mg/kg and measured after 1 hrs by western blotting; type: organism-based
P-glycoprotein (human) [4] = test: Apparent permeability in MDCK-MDR1 cells expressing human P-glycoprotein; type: ADME, cell-based, Canis lupus familiaris; conditions: dog
[5] = Clearance in Beagle dog plasma at 1 mg/kg, IV relative to liver blood flow; type: ADME, organism-based, Canis lupus familiaris
[6] = target: T2, Phosphatidylinositol 4-kinase beta (Homo sapiens, UniProt Q9UBF8); test: Binding affinity to human PIK4CB (M1/M828) WT expressed in mammalian system assessed as dissociation constant measured at 1 uM by DiscoveRx KINOMEscan assay
[7] = Ratio of drug level in C57BL/6 WT mouse brain to plasma at 5 mg/kg, sc and measured after 0.5 hrs; type: ADME, organism-based; conditions: for Kp at 0.5 h: C57BL/6, mouse, brain and plasma
[8] = target: T2, Phosphatidylinositol 4-kinase beta; test: Inhibition of PI4KB expressed in human PBMCs measured at 10 uM by KiNativ profiling analysis relative to control
P-glycoprotein (human) [9] = test: Efflux ratio of permeability across basolateral to apical side over apical to basolateral side in MDCK-MDR1 cells expressing human P-glycoprotein; conditions: dog
[10] = target: Leucine-rich repeat serine/threonine-protein kinase 2 (Homo sapiens, UniProt Q5S007, G2019S); test: Inhibition of recombinant human GST tagged truncated LRRK2 G2019S mutant using fluorescein-labeled LRRKtide as substrate in presence of ATP preincubated for 50 mins followed by anti-phospho-LRRKtide antibody addition and measured after 30 mins by TR-FRET based Lanthascreen kinase activity assay
[11] = Clearance in human liver microsomes; type: ADME, Microsome; conditions: read-out: CLH (converted)
[12] = target: T3, Leucine-rich repeat serine/threonine-protein kinase 2 (Homo sapiens, UniProt Q5S007); test: Binding affinity to human LRRK2 WT expressed in mammalian system assessed as dissociation constant measured at 1 uM by DiscoveRx KINOMEscan assay
[13] = Clearance in Sprague dawley rat plasma at 1 mg/kg, IV relative to liver blood flow; type: ADME, organism-based
[14] = Oral bioavailability in Sprague-Dawley rat plasma at 2 mg/kg relative to liver blood flow; type: ADME, organism-based
[15] = Drug uptake in Mdr1a/ 1b-BCRP knockout C57BL/6 mouse brain at 5 mg/kg, sc and measured after 0.5 hrs; type: ADME, organism-based; conditions: read-out: Drug uptake
[16] = target: T1, Leucine-rich repeat serine/threonine-protein kinase 2; test: Inhibition of LRRK2-WT in C57BL/6 mouse brain at 10 to 150 mg/kg and measured after 1 hrs by western blotting; type: organism-based
Homo sapiens = organism: Homo sapiens; test: Inhibition of human PIP5K2C (M1/A421) WT expressed in mammalian system assessed as remaining activity measured at 1 uM by DiscoveRx KINOMEscan assay relative to control
[17] = Volume of distribution in steady state in Beagle dog plasma at 1 mg/kg, IV […]; type: ADME, organism-based, Canis lupus familiaris; conditions: read-out: Vdss
[18] = Oral bioavailability in Beagle dog plasma at 2 mg/kg relative to liver blood flow; type: ADME, organism-based, Canis lupus familiaris
[19] = target: Receptor-type tyrosine-protein kinase FLT3 (Homo sapiens) (UniProt P36888); test: Inhibition of human FLT3 WT expressed in bacterial system assessed as remaining activity measured at 1 uM by DiscoveRx KINOMEscan assay
[20] = Half life in Sprague-Dawley rat plasma at 1 mg/kg, IV […]; type: ADME, organism-based
[21] = target: T3, Leucine-rich repeat serine/threonine-protein kinase 2; test: Inhibition of LRRK2-pSer935 in LRRK2 WT expressing human HEK293 cells and measured after 48 hrs by ICW assay; type: cell-based
[22] = target: T2, Phosphatidylinositol 4-kinase beta; test: Inhibition of human PIK4CB (M1/M828) WT expressed in mammalian system assessed as remaining activity measured at 1 uM by DiscoveRx KINOMEscan assay relative to control
[23] = Volume of distribution in steady state in Sprague-Dawley rat plasma at 1 mg/kg, IV […]; type: ADME, organism-based; conditions: read-out: Vdss
[24] = Ratio of unbound drug level in Md1a/1b BCRP knockout C57BL/6 mouse brain to plasma at 5 mg/kg, sc and measured after 0.5 hrs; type: ADME, organism-based; conditions: in vivo
[25] = target: Mitogen-activated protein kinase kinase kinase 1 (Homo sapiens, UniProt Q13233); test: Inhibition of MAP3K1 expressed in human PBMCs measured by KiNativ profiling analysis
[26] = system: Receptor-type tyrosine-protein kinase FLT3 (Homo sapiens), P36888 [UNDEFINED MUTATION]; test: Inhibition of human FLT3 ITD, D835V (V592/Y969) mutant expressed in bacterial system assessed as remaining activity measured at 1 uM by DiscoveRx KINOMEscan assay relative to control; values are per cent of control
[27] = target: T4, Interleukin-1 receptor-associated kinase 3 (Homo sapiens) (UniProt Q9Y616); test: Inhibition of IRAK3 expressed in human PBMCs measured at 10 uM by KiNativ profiling analysis relative to control
T4 sequence (whole entry): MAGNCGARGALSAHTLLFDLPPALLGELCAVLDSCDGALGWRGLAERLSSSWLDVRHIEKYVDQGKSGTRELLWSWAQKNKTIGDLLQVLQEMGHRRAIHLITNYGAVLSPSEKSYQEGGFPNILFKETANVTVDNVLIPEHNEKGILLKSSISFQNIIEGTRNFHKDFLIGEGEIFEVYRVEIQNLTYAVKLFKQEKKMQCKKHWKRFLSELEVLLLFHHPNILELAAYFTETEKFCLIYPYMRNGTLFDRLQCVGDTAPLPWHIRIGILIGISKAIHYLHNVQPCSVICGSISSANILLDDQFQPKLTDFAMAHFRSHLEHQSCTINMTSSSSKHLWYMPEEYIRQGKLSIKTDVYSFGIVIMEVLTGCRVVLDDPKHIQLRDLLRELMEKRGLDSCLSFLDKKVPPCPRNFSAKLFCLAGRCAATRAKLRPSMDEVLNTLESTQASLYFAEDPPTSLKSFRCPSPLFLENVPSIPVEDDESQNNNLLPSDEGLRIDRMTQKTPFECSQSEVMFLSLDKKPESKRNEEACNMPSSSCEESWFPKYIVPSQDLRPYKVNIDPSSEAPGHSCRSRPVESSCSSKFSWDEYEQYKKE

BCRP (human) = test: Apparent permeability in MDCK cells expressing human BCRP; type: ADME, cell-based, Canis lupus familiaris; conditions: dog
[28] = Mutagenecity in Salmonella enterica subsp. enterica serovar Typhimurium by Ames test; type: toxicity

T3 sequence (Q5S007 whole entry): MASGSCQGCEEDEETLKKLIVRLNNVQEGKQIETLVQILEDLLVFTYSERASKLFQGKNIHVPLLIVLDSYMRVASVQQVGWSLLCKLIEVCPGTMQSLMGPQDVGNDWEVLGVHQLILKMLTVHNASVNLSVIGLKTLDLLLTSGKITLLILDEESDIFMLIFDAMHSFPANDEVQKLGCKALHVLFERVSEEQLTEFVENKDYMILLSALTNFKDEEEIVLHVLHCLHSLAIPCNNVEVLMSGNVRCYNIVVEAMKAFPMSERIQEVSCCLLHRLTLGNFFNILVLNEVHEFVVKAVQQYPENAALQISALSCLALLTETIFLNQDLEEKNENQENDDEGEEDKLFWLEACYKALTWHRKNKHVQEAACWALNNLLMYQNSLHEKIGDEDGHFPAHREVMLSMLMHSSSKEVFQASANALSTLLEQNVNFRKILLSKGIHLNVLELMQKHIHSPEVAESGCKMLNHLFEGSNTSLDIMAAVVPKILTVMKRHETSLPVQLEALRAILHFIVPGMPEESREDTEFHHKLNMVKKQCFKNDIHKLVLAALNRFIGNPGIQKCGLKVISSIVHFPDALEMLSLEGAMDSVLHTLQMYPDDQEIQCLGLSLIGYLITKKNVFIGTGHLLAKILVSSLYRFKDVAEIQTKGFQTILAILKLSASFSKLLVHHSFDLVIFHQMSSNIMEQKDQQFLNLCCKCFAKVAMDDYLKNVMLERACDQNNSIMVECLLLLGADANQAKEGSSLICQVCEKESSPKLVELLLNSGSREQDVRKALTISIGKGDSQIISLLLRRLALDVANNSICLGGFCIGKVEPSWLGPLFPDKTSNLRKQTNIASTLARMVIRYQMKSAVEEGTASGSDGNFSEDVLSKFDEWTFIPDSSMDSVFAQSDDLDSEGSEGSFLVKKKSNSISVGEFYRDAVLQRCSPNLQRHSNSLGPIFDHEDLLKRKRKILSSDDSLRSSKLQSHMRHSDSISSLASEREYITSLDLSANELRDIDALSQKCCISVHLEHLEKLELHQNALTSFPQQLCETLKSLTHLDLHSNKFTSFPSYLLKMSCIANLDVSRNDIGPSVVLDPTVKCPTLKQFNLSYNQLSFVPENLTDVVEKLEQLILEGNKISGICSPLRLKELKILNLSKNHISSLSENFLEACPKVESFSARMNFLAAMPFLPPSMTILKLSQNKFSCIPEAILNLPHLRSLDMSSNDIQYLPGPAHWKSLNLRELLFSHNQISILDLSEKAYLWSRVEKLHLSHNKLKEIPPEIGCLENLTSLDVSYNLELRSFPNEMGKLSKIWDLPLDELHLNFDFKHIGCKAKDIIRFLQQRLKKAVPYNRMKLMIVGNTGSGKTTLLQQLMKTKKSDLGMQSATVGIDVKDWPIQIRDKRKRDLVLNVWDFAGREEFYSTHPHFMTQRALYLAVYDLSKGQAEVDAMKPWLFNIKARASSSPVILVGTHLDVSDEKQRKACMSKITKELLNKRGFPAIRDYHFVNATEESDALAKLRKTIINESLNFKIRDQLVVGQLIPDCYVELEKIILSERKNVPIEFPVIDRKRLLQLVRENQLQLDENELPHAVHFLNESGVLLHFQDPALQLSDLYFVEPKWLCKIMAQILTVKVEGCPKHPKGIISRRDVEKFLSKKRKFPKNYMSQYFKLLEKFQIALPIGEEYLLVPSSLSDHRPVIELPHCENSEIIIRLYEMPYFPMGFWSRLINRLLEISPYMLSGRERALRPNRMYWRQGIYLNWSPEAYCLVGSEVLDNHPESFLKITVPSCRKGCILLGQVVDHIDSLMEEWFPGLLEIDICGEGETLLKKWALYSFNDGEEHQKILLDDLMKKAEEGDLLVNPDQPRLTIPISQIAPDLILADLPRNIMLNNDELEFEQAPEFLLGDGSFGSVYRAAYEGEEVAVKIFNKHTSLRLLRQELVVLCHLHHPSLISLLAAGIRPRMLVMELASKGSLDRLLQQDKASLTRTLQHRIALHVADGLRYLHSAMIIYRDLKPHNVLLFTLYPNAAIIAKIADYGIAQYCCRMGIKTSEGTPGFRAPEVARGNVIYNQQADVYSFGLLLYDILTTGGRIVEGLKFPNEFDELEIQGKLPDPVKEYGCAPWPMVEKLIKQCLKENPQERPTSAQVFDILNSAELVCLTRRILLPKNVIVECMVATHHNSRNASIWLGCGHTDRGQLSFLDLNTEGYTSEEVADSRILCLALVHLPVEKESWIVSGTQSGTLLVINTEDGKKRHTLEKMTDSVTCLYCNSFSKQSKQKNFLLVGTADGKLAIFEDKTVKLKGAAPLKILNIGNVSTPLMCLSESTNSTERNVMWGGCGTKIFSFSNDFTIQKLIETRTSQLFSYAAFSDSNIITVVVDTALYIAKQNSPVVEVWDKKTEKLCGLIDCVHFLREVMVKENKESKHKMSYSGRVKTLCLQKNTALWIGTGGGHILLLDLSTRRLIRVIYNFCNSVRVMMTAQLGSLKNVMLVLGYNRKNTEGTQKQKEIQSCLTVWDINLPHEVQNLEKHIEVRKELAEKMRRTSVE
T1 sequence (Q5S006 whole entry): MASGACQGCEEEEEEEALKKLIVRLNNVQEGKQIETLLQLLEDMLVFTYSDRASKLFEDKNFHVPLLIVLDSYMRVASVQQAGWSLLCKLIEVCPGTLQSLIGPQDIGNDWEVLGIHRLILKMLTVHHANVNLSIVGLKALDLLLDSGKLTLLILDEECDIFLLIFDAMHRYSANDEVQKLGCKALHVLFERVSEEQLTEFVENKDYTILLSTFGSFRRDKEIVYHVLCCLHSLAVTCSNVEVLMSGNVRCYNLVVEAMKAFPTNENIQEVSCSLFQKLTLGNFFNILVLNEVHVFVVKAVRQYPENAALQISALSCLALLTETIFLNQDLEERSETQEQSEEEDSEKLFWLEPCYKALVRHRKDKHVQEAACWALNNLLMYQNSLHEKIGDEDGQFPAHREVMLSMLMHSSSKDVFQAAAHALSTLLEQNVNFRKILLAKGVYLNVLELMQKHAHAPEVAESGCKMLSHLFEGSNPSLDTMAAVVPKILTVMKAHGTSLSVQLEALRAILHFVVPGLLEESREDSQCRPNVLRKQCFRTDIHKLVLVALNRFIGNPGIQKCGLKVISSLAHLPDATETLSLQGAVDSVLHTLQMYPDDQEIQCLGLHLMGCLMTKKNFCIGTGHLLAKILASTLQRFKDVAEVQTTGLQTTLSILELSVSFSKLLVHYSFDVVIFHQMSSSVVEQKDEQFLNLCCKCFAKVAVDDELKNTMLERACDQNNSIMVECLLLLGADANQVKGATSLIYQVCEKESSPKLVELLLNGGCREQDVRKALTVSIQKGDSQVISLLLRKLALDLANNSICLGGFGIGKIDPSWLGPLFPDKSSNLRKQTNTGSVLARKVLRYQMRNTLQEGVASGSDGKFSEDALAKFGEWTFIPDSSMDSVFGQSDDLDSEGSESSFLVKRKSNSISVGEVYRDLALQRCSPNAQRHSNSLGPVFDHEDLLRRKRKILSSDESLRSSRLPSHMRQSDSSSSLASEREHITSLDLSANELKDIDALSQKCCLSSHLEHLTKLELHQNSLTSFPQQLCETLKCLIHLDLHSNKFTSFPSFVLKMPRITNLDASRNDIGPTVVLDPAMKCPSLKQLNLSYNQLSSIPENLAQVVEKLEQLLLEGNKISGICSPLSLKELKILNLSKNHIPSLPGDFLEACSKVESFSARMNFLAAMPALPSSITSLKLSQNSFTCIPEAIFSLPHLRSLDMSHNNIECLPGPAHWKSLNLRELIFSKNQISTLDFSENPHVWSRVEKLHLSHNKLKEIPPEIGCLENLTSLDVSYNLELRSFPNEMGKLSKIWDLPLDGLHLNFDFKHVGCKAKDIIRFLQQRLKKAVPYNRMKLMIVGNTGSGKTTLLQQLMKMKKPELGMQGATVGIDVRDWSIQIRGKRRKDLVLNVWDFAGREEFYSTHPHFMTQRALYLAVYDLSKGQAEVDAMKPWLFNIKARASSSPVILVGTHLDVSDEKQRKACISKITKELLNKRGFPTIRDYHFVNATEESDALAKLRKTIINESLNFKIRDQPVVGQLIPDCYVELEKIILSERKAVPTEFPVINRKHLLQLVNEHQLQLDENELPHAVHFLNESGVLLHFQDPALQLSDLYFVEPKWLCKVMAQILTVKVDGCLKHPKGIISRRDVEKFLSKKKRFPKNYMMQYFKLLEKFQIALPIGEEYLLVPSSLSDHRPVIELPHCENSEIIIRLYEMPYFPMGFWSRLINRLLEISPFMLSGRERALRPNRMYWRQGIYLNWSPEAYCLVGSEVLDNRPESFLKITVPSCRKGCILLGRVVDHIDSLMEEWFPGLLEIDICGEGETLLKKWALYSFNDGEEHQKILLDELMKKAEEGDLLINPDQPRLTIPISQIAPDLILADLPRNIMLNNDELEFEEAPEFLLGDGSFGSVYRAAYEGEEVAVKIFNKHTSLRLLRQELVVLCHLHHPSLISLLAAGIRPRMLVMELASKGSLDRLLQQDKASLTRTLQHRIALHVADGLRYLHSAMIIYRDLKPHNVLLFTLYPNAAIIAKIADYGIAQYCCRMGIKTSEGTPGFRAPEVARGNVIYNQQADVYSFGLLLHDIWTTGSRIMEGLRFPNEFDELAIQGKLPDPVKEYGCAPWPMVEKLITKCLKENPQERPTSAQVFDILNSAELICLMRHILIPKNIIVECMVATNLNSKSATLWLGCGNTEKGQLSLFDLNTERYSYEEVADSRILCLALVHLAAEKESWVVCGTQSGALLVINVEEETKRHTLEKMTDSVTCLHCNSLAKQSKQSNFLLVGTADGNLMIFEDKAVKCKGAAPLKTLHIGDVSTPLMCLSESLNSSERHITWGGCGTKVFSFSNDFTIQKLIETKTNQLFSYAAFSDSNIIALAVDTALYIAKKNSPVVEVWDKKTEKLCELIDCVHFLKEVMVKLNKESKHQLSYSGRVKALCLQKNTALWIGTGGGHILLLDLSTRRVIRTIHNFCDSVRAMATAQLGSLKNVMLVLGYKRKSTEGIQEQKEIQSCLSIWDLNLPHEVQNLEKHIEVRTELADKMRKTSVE
Sequence of Leucine-rich repeat serine/threonine-protein kinase 2 (Homo sapiens, UniProt Q5S007, G2019S) (Q5S007 whole entry G2019S, the tested form may be a part): as the sequence (Q5S007 whole entry) above, with G2019S counted along it

Cc1c(Nc2nc(N)c3c(C#N)c(N4CCC[C@H]4C)n(C)c3n2)cnn1[C@@H]1CCOC1
Kp at 0.5 h [1]: 1.05 | concentration at 0.5 h [2]: 1960 ng/mL | IC50 [3]: 16 nM | Papp (P-glycoprotein (human) [4]): 4.6 ×10⁻⁶ cm/s | clearance [5]: 36.7 mL/min/kg | Kd [6]: 850 nM | Kp at 0.5 h [7]: 0.06 | Ratio ([7]; mouse, brain, 5 mg/kg, 0.5 h): 0.07 | inhibition [8]: 45% | efflux ratio (P-glycoprotein (human) [9]): 1.2 | IC50 [10]: 12 nM | CLint scaled [11]: 28.3 mL/min/kg | Kd [12]: 3.7 nM | clearance [13]: 158 mL/min/kg | bioavailability [14]: 5% | concentration at 0.5 h [15]: 2060 ng/g | IC50 [16]: 11 nM | Activity (Homo sapiens): < 37% | Vd [17]: 1 L/kg | bioavailability [18]: 25% | inhibition [19]: inactive | half-life [20]: 6 min | IC50 [21]: 180 nM | Activity [22]: < 37% | Vd [23]: 1.7 L/kg | Ratio [24]: 0.37 | IC50 [25]: 1100 nM | residual activity [26]: 25% | inhibition [27]: -6% | Papp (BCRP (human)): 0.7 ×10⁻⁶ cm/s | Activity [28]: Non-Toxic

Cc1c(Nc2nc(N)c3c(C#N)c(N4CCC[C@H]4C)n(C)c3n2)cnn1[C@H]1CCOC1
Kp at 0.5 h [1]: 0.65 | concentration at 0.5 h [2]: 1600 ng/mL | IC50 [3]: 23 nM | Papp (P-glycoprotein (human) [4]): 4.3 ×10⁻⁶ cm/s | clearance [5]: 53.3 mL/min/kg | Kd [6]: 730 nM | Kp at 0.5 h [7]: 0.15 | inhibition [8]: 29% | efflux ratio (P-glycoprotein (human) [9]): 0.9 | IC50 [10]: 14 nM | CLint scaled [11]: 23.3 mL/min/kg | Kd [12]: 6.6 nM | clearance [13]: 76.7 mL/min/kg | bioavailability [14]: < 1% | concentration at 0.5 h [15]: 1080 ng/g | IC50 [16]: 22 nM | Activity (Homo sapiens): < 37% | Vd [17]: 1.8 L/kg | bioavailability [18]: 96% | inhibition [19]: inactive | half-life [20]: 12 min | IC50 [21]: 140 nM | Activity [22]: < 37% | Vd [23]: 1.1 L/kg | Ratio [24]: 0.24 | IC50 [25]: 840 nM | residual activity [26]: 1.9% | inhibition [27]: 37% | Papp (BCRP (human)): 1.2 ×10⁻⁶ cm/s | Activity [28]: Non-Toxic
